These results are taken from ChEMBL document CHEMBL1201862, “PubChem BioAssay data set” (2004).

Test systems include BT-549; CCRF-CEM; HCT-15; HL-60; M14; MDA-MB-435; MOLT-4; NCI-H23; NCI-H460; RXF 393; SF-268; SF-539; SK-MEL-2; SK-OV-3; SW-620; T47D; U-251; UACC-257; UACC-62; Malme-3M.
What all share (test): inhibition of tumour cell growth, NCI panel, 48 h

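Each compound was tested at five concentrations against cells in 96-well plates for 48 hours. GI50: concentration for 50% inhibition of growth.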 The source made the active and inactive calls. Cut-off read from the data, not from the text of the source: active = GI50 up to about 1.1 µM and inactive = higher.

In the case of `Cc1c2c(C(N)=O)nccc2c(C)c2c1c1ccccc1n2Cc1ccccc1`, the GI50 in the test on BT-549 was 29.3 µM (inactive); in the test with CCRF-CEM, 23.3 µM (inactive); in the test on HCT-15 it was 16 µM; in the test on HL-60, 23.3 µM (inactive); in the test with M14, 56.2 µM (inactive); with MDA-MB-435, 33.9 µM (inactive). Also, the GI50 was 32.7 µM (inactive) in the test with MOLT-4; 23.1 µM (inactive) with NCI-H23; 11.6 µM (inactive) with NCI-H460; 11.9 µM (inactive) with RXF 393; 28.4 µM (inactive) in the test with SF-268; 19.1 µM (inactive) in the test with SF-539. In addition, the GI50 in the test with SK-MEL-2 was 18.8 µM (inactive); in the test with SK-OV-3, 22.9 µM (inactive); with SW-620, 17.2 µM (inactive); in the test with T47D it was 29.2 µM (inactive); in the test on U-251, 9.04 µM (inactive); in the test on UACC-257, 43.3 µM (inactive). In the test with UACC-62, the GI50 is 60.4 µM (inactive).
As to `CC1=C(C(=S)Nc2ccc(Cl)c(C(=O)OC(C)C)c2)SCCO1`, the GI50 in the test on BT-549 is 17.7 µM (inactive); in the test on CCRF-CEM it was 18.2 µM (inactive); with HCT-15, 17.1 µM; in the test on HL-60 it was 17.5 µM (inactive); in the test on M14, 18.8 µM (inactive); with MDA-MB-435, 19.3 µM (inactive). For the same compound, the GI50 is 15.7 µM (inactive) with MOLT-4; 20.3 µM (inactive) in the test with Malme-3M; 20.6 µM (inactive) in the test with NCI-H23; 21.8 µM (inactive) in the test on NCI-H460; 25.1 µM (inactive) in the test with SF-268; 18.7 µM (inactive) in the test on SF-539. Moreover, the GI50 in the test on SK-MEL-2 was 21.5 µM (inactive); in the test on SK-OV-3, 20.4 µM (inactive); in the test on SW-620, 20.2 µM (inactive); with T47D, 19.6 µM (inactive); in the test on U-251, 17.6 µM (inactive); in the test on UACC-257, 18.5 µM (inactive). Moreover, the GI50 in the test with UACC-62 is 15.5 µM (inactive).
`Cc1ccc(S(=O)(=O)N/N=C2/CC[C@H](C(C)(C)C)C[C@@H]2C)cc1`: the GI50 with BT-549 was 16.2 µM (inactive); in the test on CCRF-CEM, 15.8 µM (inactive); in the test with HCT-15, 16.6 µM; in the test with HL-60 it was 35.6 µM (inactive); with M14 it was 13.7 µM (inactive); in the test on MDA-MB-435 it was 16 µM (inactive). The GI50 in the test on MOLT-4 is 12.5 µM (inactive); with Malme-3M it was 16.1 µM (inactive); in the test with NCI-H23 it was 17.1 µM (inactive); with NCI-H460, 17 µM (inactive); with SF-268 it was > 10 µM (inactive); with SF-539, 18.2 µM (inactive). Also, the GI50 is 17.1 µM (inactive) with SK-MEL-2; 18.4 µM (inactive) in the test with SK-OV-3; 22.5 µM (inactive) in the test with SW-620; 10.6 µM (inactive) with T47D; 17.4 µM (inactive) in the test on U-251; 13.9 µM (inactive) with UACC-257. Moreover, in the test on UACC-62, the GI50 was 15.7 µM (inactive).
As for `Cc1c(OCc2cccc3ccccc23)ccc2c(O)cc(=S)oc12`, the GI50 with BT-549 is 30.9 µM (inactive); with CCRF-CEM, 22.1 µM (inactive); in the test on HCT-15 it was 35.3 µM; with HL-60, 19.4 µM (inactive); in the test on M14, 34.8 µM (inactive); with MDA-MB-435 it was 30.1 µM (inactive). Also, the GI50 is 32 µM (inactive) in the test with MOLT-4; 25.7 µM (inactive) in the test with NCI-H23; 31.8 µM (inactive) in the test with NCI-H460; 57.9 µM (inactive) in the test with RXF 393; 34.1 µM (inactive) in the test with SF-268; 26.9 µM (inactive) in the test with SF-539. Besides, the GI50 in the test with SK-MEL-2 is 19.4 µM (inactive); with SW-620 it was 39.2 µM (inactive); with T47D it was 35.2 µM (inactive); in the test with U-251, 35.6 µM (inactive); with UACC-257, 46.3 µM (inactive); in the test with UACC-62 it was 23.1 µM (inactive).
As to `CC(=O)N1c2ccccc2C(C)(C)OC1C(Cl)(Cl)Cl` (stereo not given), the GI50 was 35.8 µM (inactive) in the test on BT-549; 27.7 µM (inactive) with CCRF-CEM; 32.2 µM in the test on HCT-15; 16.8 µM (inactive) in the test on HL-60; 34 µM (inactive) in the test on M14; 25.5 µM (inactive) in the test with MDA-MB-435. Further, the GI50 is 14.4 µM (inactive) with MOLT-4; 35.9 µM (inactive) in the test with Malme-3M; 34.1 µM (inactive) with NCI-H23; 33.3 µM (inactive) in the test on NCI-H460; 37.3 µM (inactive) with SF-268; 44.5 µM (inactive) in the test on SF-539. Further, the GI50 in the test on SK-MEL-2 was 45.1 µM (inactive); in the test with SK-OV-3 it was 37.8 µM (inactive); in the test on SW-620, 34 µM (inactive); in the test on T47D, 84.7 µM (inactive); in the test with U-251 it was 33.3 µM (inactive); with UACC-257 it was 26.5 µM (inactive). Moreover, the GI50 with UACC-62 is 37 µM (inactive).
Regarding `C[C@@H]1CC[C@@H]2[C@@H](C1)O[C@@H]([C@@H](C)OCc1ccccc1)SC2(C)C`, the GI50 in the test with BT-549 was 22.1 µM (inactive); with CCRF-CEM, 16.6 µM (inactive); with HCT-15, 19.5 µM; in the test with M14 it was 19.3 µM (inactive); with MDA-MB-435, 16.9 µM (inactive); in the test on MOLT-4, 16.1 µM (inactive). The GI50 in the test with Malme-3M is 17.2 µM (inactive); with NCI-H23, 21.7 µM (inactive); with NCI-H460, 20.9 µM (inactive); in the test with RXF 393, 15.4 µM (inactive); with SF-268, 23 µM (inactive); in the test on SF-539, 17.2 µM (inactive). In addition, the GI50 was 15.8 µM (inactive) in the test with SK-MEL-2; 24.9 µM (inactive) with SK-OV-3; 18.4 µM (inactive) with SW-620; 14.7 µM (inactive) in the test with T47D; 17.5 µM (inactive) with U-251; 19.4 µM (inactive) in the test with UACC-257. Besides, the GI50 with UACC-62 was 19.3 µM (inactive).
Consider `CCOc1ccc(N/C(=C(/C(Cl)=C(/Cl)N(CC)CC)[N+](=O)[O-])n2nnc3ccccc32)cc1`, for which the GI50 in the test with BT-549 is 19.8 µM (inactive); with CCRF-CEM, 19.8 µM (inactive); with HCT-15 it was 19.1 µM; with M14, 31.8 µM (inactive); in the test on MDA-MB-435, 19.5 µM (inactive); in the test with MOLT-4 it was > 100 µM (inactive). The GI50 in the test with Malme-3M is 17.9 µM (inactive); with NCI-H23, 17.2 µM (inactive); in the test with NCI-H460 it was 56.5 µM (inactive); with RXF 393 it was 14.4 µM (inactive); with SF-268 it was 15.7 µM (inactive); in the test on SF-539 it was 23.2 µM (inactive). In addition, the GI50 with SK-MEL-2 was 28.2 µM (inactive); in the test with SK-OV-3 it was 56.1 µM (inactive); in the test on SW-620, 14.2 µM (inactive); in the test on T47D, 14.2 µM (inactive); with U-251, 14 µM (inactive); in the test on UACC-257, 38.7 µM (inactive). The GI50 in the test with UACC-62 is 13.1 µM (inactive).
In the case of `O=c1n(-c2ccccc2)c(=O)n2n1C1CCC2CC1`, the GI50 was > 100 µM (inactive) in the test on BT-549; > 100 µM (inactive) in the test with CCRF-CEM; above 100 µM with HCT-15; > 100 µM (inactive) with HL-60; > 100 µM (inactive) with M14; > 100 µM (inactive) with MDA-MB-435. In addition, the GI50 with MOLT-4, in the test on NCI-H23, in the test with NCI-H460, in the test on SF-268, with SF-539 and with SK-MEL-2 was > 100 µM (inactive) each time. Also, the GI50 in the test on SK-OV-3, in the test on SW-620, in the test on T47D, in the test with U-251, with UACC-257 and in the test on UACC-62 was > 100 µM (inactive) each time.
For the compound `C[C@@H]1CC[C@H]2[C@H](C)C(OC3O[C@@H]4O[C@@]5(C)CC[C@H]6[C@H](C)CC[C@@H]([C@@H]3C)[C@@]46O5)O[C@@H]3O[C@@]4(C)CC[C@@H]1[C@]32O4` (stereo not given in full), the GI50 with BT-549 was > 100 µM (inactive); with CCRF-CEM, > 100 µM (inactive); in the test on HCT-15, above 100 µM; in the test on HL-60, > 100 µM (inactive); in the test on M14, > 100 µM (inactive); with MDA-MB-435, > 100 µM (inactive). Also, the GI50 with MOLT-4, in the test with Malme-3M, with NCI-H23, with NCI-H460, in the test with SF-268 and in the test with SF-539 was > 100 µM (inactive) in each case. Moreover, the GI50 in the test on SK-MEL-2, in the test on SK-OV-3, with SW-620, with T47D, in the test on U-251 and in the test on UACC-257 was > 100 µM (inactive) throughout. For the same compound, the GI50 in the test on UACC-62 is > 100 µM (inactive).
As to `Nc1nc(-c2ccccc2/N=N/N2CCCC2)nc2ccccc12`, the GI50 is 11.8 µM (inactive) in the test with BT-549; 3.07 µM (inactive) in the test on CCRF-CEM; 2.7 µM in the test with HCT-15; 3.08 µM (inactive) in the test with M14; 2.56 µM (inactive) in the test on MDA-MB-435; 1.16 µM (inactive) in the test with MOLT-4. Further, the GI50 was 3.28 µM (inactive) in the test with Malme-3M; 2.2 µM (inactive) in the test with NCI-H23; 2.92 µM (inactive) in the test on NCI-H460; 5.73 µM (inactive) in the test on RXF 393; 6.7 µM (inactive) with SF-268; 2.39 µM (inactive) in the test with SF-539. Besides, the GI50 was 13.2 µM (inactive) in the test on SK-MEL-2; 9.1 µM (inactive) in the test with SK-OV-3; 1.74 µM (inactive) with SW-620; 2.4 µM (inactive) in the test on T47D; 2.67 µM (inactive) in the test on U-251; 3.51 µM (inactive) in the test on UACC-257. Also, the GI50 in the test with UACC-62 was 1.77 µM (inactive).
Take `CC(O)(CCCCCl)c1nc2ccccc2s1` (stereo not given): the GI50 in the test on BT-549 was 67.9 µM (inactive); in the test with CCRF-CEM, > 100 µM (inactive); in the test with HCT-15, above 100 µM; in the test on HL-60 it was 60.4 µM (inactive); with M14, > 100 µM (inactive); in the test on MDA-MB-435, > 100 µM (inactive). In addition, the GI50 in the test on MOLT-4 was 50.7 µM (inactive); in the test with NCI-H23, > 100 µM (inactive); with SF-268, 52.8 µM (inactive); with SF-539, > 100 µM (inactive); with SK-MEL-2 it was > 100 µM (inactive); with SK-OV-3, > 100 µM (inactive). Moreover, the GI50 with SW-620 is > 100 µM (inactive); in the test on T47D, 29.8 µM (inactive); with U-251, 85.5 µM (inactive); in the test on UACC-257 it was > 100 µM (inactive); with UACC-62, > 100 µM (inactive).
